The values that follow come from patent publication US10508107B2, “Morpholine derivative” (Hoffmann-La Roche Inc., priority 2016, dated 2019).

Structures are written as SMILES. pEC50, pIC50, pKi: −log10 of the molar value. Like-named read-outs stand apart in the source and are kept apart here. A value given as a limit tells only on which side of the number the result lay.

One data set has as its target hERG potassium channel (Homo sapiens (Human), UniProt Q12809). In words: hERG whole-cell patch-clamp in stably transfected CHO cells. The class given is cell-based. The note with it: for selectivity ratio: pH 7.4, hERG IC20 / hTAAR1 EC50, read-out: hERG selectivity ratio versus hTAAR1 EC50; for pIC50: patch-clamp, CHO cells, 36±1° C. The procedure: The whole-cell patch-clamp technique was used to investigate the effects of the test items on hERG (human-ether-a-go-go related gene) potassium channels in stably transfected CHO cells near physiological temperature (36±1° C.). The effects of compounds on hERG K^+-current parameters were evaluated at 4 concentrations (0.3-3-30-300 μM) in at least 3 CHO cells stably expressing the hERG channel. For electrophysiological measurements cells were seeded onto 35 mm sterile culture dishes containing 2 ml culture medium without Hygromycin B. Cells were cultivated at a density that enabled single cells (without visible connections to neighbouring cells) to be measured. Cells were incubated at 37° C. in a humidified atmosphere with 5% CO2 (rel. humidity about 95%). The cells were continuously maintained in and passaged in sterile culture flasks containing nutrient mixture F-12 (DMEM/F-12 with L-Glutamine) supplemented with 10% foetal bovine serum and 10% penicillin/streptomycin solution. […] The 35 mm culture dishes upon which cells were seeded at a density allowing single cells to be recorded were placed on the dish holder of the microscope and continuously perfused (at approximately 1 ml/min) with the bath solution (sodium chloride 150 mM, potassium chloride 4 mM, calcium chloride 1.2 mM, magnesium chloride 1 mM, HEPES 10 mM, pH (NaOH) 7.4) at near physiological temperature (36±1° C.). After formation of a Gigaohm seal between the patch electrodes and individual hERG stably transfected CHO cells (pipette resistance range: 2.0 MΩ-7.0 Mω; seal resistance range: >1 Gω) the cell membrane across the pipette tip was ruptured to assure electrical access to the cell interior (whole-cell patch-configuration). In case the quality of the seal was poor, the process of seal formation was repeated with a different cell and a new pipette. […] This voltage protocol was run at least 10 times at intervals of 10 s. If current density was judged to be too low for measurement, another cell was recorded. […] During wash-in of the test item the voltage protocol indicated above was run continuously again at 10 s intervals until the steady-state level of block was reached. The four test item concentrations of the compound were applied sequentially to 3 cells in a cumulative manner. […] Based on the IC50 value the IC20 was estimated. Each concentration of the test item was analyzed in three experiments (n=3).
In general terms: hERG is a cardiac potassium channel; its block is linked to QT prolongation.

A further data set has as its target human TAAR1 (Homo sapiens (Human), UniProt Q96RJ0). Kind of data set: cAMP functional assay in HEK293 cells expressing human TAAR1. It counts as cell-based. To be noted: for hTAAR1 efficacy*: % agonist activity, β-phenylethylamine = 100% agonism; for pEC50: cAMP, HEK293 cells expressing human TAAR1, read-out: hTAAR1 EC50. The procedure: For the construction of expression plasmids the coding sequences of human TAAR 1 were amplified from genomic DNA essentially as described by Lindemann et al.[14]. The Expand High Fidelity PCR System (Roche Diagnostics) was used with 1.5 mM Mg^2+ and purified PCR products were cloned into pCR2.1-TOPO cloning vector (Invitrogen) following the instructions of the manufacturer. PCR products were subcloned into the pIRESneo2 vector (BD Clontech, Palo Alto, Calif.), and expression vectors were sequence verified before introduction in cell lines.
HEK293 cells (ATCC # CRL-1573) were cultured essentially as described by Lindemann et al. (2005). For the generation of stably transfected cell lines HEK293 cells were transfected with the pIRESneo2 expression plasmids containing the TAAR coding sequences (described above) with Lipofectamine 2000 (Invitrogen) according to the instructions of the manufacturer, and 24 hrs post transfection the culture medium was supplemented with 1 mg/ml G418 (Sigma, Buchs, Switzerland). After a culture period of about 10 d clones were isolated, expanded and tested for responsiveness to trace amines (all compounds purchased from Sigma) with the cAMP Biotrak Enzyme immunoassay (EIA) System (Amersham) following the non-acetylation EIA procedure provided by the manufacturer.
cAMP measurements were performed as described previously (Revel et al., Proc. Natl. Acad. Sci. USA 2011, 108, 8485-8490). In brief, cells that expressed human TAAR1 were plated on 96-well plates (BIOCOAT 6640; Becton Dickinson, Allschwil, Switzerland) and incubated for 20 h at 37° C. Prior to stimulation of the cells with a broad concentration range of agonists for 30 min at 37° C., the cells were washed with PBS and preincubated with PBS that contained 1 mM 3-isobutyl-1-methylxanthine for 10 min at 37° C. and 5% CO2. Stimulation with 0.2% DMSO was set as the basal level, and the effect of 30 μM β-PEA was set as the maximal response. Subsequently, the cells were lysed, and cAMP assays were performed according to the manufacturer's instructions (cAMP kit; Upstate/Millipore, Schaffhausen, Switzerland). Finally, the plates were read with a luminometer (1420 Multilabel counter; PerkinElmer, Schwerzenbach, Switzerland), and the amount of cAMP was calculated. The results were obtained from at least three independent experiments. Experiments were run in duplicate or triplicate. EC50 values are presented as mean ±standard deviation (in μM).

A further data set concerns the target human DAT (Homo sapiens (Human), UniProt Q01959). In words: Binding to dopamine transporter (DAT) in vitro, [3H]-WIN35,428 SPA. To be noted: for pKi: [3H]-WIN35,428 radioligand; for DAT selectivity ratio versus hTAAR1 EC50: DAT Ki / hTAAR1 EC50. The procedure: Binding to dopamine transporter (DAT) in vitro. Human embryonic kidney (HEK) 293 cells (Invitrogen, Zug, Switzerland) stably transfected with human DAT were cultured. The cells were collected and washed three times with phosphate-buffered saline (PBS). The pellets were frozen at −80° C. The pellets were then resuspended in 400 ml of 20 mM HEPES-NaOH, pH 7.4, that contained 10 mM EDTA at 4° C. After homogenization with a Polytron (Kinematica, Lucerne,
Switzerland) at 10000 rotations per minute (rpm) for 15 s, the homogenates were centrifuged at 48000×g for 30 min at 4° C. Aliquots of the membrane stocks were frozen at −80° C. All assays were performed at least three times. The test compounds were diluted in […] of binding buffer (252 mM NaCl, 5.4 mM KCl, 20 mM Na2HPO4, 3.52 mM KH2PO4, pH 7.4) and 10 point dilution curves were made and transferred to 96-well white polystyrene assay plates (Sigma-Aldrich, Buchs, Switzerland). […] Twenty microliters of binding buffer alone in the assay plate defined the total binding, whereas binding in the presence of 10 μM indatraline defined nonspecific binding. Frozen DAT membrane stocks were thawed and resuspended to a concentration of approximately 0.04 mg protein/ml binding buffer (1:1 diluted in H2O) using a polytron tissue homogenizer. The membrane homogenates (40 μg/ml) were then lightly mixed for 5-30 min with polyvinyl toluene […] wheat germ agglutinin-coated scintillation proximity assay (WGASPA; Amersham Biosciences) beads at 7.7 mg beads/ml homogenate. One hundred thirty microliters of the membrane/bead mixture were added to each well of the assay plate that contained radioligand and test compounds (final volume in each well, 200 μl) to start the assay, which was incubated for approximately 2 h at room temperature with agitation. The assay plates were then counted in the PVT SPA counting mode of a Packard Topcount. […] Non-linear regression was used to fit the data to sigmoid curves and determine IC50 values for binding and uptake. Ki values for binding and uptake were calculated using the following Cheng-Prusoff equation: Ki=IC50/(1+[S]/Km).

The mark [1] stands for this setting: estimated based on the IC50 value.
The mark [2] stands for this setting: human, CHO cells stably expressing hERG.
[3] abbreviates: human, CHO cells stably expressing hERG, pH 7.4, estimated based on the IC50 value.

human TAAR1, sequence (Q96RJ0 whole entry): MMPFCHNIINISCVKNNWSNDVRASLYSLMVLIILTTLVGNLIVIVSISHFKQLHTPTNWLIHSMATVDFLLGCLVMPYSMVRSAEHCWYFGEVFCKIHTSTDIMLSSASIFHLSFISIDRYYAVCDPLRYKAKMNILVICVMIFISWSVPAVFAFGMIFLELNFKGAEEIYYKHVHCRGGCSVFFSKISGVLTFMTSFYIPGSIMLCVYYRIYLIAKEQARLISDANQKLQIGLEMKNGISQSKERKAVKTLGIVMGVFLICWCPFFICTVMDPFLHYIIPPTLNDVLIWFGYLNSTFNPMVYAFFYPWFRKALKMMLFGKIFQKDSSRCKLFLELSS
human DAT, sequence (Q01959 whole entry): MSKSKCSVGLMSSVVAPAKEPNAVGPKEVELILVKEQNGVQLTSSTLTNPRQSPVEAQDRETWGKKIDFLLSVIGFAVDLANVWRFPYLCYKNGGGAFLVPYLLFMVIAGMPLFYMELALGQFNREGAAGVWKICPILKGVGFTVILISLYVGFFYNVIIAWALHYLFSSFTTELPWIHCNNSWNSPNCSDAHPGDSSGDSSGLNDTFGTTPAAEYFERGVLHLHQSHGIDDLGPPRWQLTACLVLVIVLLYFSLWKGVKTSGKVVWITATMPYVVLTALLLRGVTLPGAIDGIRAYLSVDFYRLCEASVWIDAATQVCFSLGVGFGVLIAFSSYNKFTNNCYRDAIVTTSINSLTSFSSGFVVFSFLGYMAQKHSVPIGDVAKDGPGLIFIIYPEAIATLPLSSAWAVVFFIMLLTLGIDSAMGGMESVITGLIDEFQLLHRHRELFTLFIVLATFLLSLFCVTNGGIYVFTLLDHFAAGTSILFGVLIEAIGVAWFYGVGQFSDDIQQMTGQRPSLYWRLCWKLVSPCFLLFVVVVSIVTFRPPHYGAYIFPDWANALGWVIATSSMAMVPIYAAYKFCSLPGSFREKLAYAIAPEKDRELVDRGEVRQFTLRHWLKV
hERG potassium channel, sequence (Q12809 whole entry): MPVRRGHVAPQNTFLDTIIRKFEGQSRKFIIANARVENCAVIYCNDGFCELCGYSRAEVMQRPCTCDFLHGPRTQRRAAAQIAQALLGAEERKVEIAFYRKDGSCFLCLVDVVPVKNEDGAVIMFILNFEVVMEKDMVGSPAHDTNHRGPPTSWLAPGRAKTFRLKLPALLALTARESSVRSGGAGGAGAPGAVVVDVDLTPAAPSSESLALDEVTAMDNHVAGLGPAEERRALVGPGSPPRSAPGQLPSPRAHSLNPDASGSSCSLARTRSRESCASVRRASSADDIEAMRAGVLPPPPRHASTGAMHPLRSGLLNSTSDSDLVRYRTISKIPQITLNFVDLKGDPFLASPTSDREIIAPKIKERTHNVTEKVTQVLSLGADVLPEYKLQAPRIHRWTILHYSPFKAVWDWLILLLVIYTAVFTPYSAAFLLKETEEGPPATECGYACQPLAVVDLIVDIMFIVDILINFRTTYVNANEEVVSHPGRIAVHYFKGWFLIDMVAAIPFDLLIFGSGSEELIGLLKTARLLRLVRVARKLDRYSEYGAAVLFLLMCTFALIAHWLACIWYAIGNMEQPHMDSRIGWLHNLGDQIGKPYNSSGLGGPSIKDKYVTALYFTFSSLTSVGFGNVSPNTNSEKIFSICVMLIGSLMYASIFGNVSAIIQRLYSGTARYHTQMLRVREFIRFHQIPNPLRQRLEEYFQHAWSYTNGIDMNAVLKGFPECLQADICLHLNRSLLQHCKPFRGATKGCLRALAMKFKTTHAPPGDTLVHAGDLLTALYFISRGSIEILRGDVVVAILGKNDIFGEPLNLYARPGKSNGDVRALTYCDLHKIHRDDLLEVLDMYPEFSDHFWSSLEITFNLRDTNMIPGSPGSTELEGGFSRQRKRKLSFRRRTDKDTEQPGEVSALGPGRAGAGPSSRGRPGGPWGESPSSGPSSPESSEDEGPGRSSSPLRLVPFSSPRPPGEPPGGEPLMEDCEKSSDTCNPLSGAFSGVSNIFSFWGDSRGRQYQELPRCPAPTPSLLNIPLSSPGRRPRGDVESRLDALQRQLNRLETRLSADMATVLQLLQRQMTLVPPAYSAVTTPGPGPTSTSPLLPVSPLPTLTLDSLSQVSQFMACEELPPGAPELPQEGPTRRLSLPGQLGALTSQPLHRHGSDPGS

In general, IC20 refers to the concentration at which the effect reaches the 20% level. The term pIC50 denotes the negative decadic logarithm of the IC50, by convention in mol/L. What is called pEC50 is the negative decadic logarithm of the EC50, by convention in mol/L. In general, pKi refers to the negative decadic logarithm of the Ki, by convention in mol/L. Consider `N#Cc1ccc(C(=O)Nc2ccc([C@H]3CNCCO3)cc2)cn1` [Example 10, 6-Cyano-N-[4-[(2S)-morpholin-2-yl]phenyl]pyridine-3-carboxamide], for which, at hERG potassium channel, the “Ratio hERG IC20/hTAAR1 EC50” value came to 31 and the negative logarithm of the IC50 (pIC50) is 4.50. For the same compound, the IC20 on hERG potassium channel (setting [1]) was 5.78 µM. Also, at hERG potassium channel (setting [2]), the selectivity ratio turned out to be 31. Besides, on human TAAR1, the “hTAAR1 efficacy*” value is reported as 38% and the pEC50 is 6.74. At human TAAR1 (listed as example 10), the pEC50 was 6.74. On human DAT, the “Ratio DAT Ki/hTAAR1 EC50” value was found to be 62 and the pKi was 4.95.

Turning to `O=C(Nc1ccc([C@H]2CNCCO2)cc1)c1ccc(Cl)cn1` [Example 12, 5-Chloro-N-[4-[(2S)-morpholin-2-yl]phenyl]pyridine-2-carboxamide], at hERG potassium channel, the “Ratio hERG IC20/hTAAR1 EC50” value was 15 and the negative-log IC50 (pIC50) is 4.85. The concentration for an effect of 20% (IC20) at hERG potassium channel (setting [3]) was 3.21 µM. The selectivity ratio at hERG potassium channel (setting [2]) was found to be 15. Besides, on human TAAR1, the “hTAAR1 efficacy*” value is 40% and the pEC50 was 6.67. Besides, at human TAAR1 (listed as example 12), the pEC50 was 6.67. On human DAT, the “Ratio DAT Ki/hTAAR1 EC50” value is on record as 8, the “DAT selectivity ratio versus hTAAR1 EC50” value came to 8 fold and the negative-log Ki (pKi) is 5.75.

For the compound `O=C(Nc1ccc([C@H]2CNCCO2)cc1)c1cncc(Cl)c1` [Example 13, 5-Chloro-N-[4-[(2S)-morpholin-2-yl]phenyl]pyridine-3-carboxamide], on hERG potassium channel, the “Ratio hERG IC20/hTAAR1 EC50” value is recorded as 23 and the pIC50 is 4.18. In addition, the IC20 at hERG potassium channel (setting [1]) is 9.14 µM. Moreover, on hERG potassium channel (setting [2]), the selectivity ratio amounted to 23. Further, at human TAAR1, the “hTAAR1 efficacy*” value is recorded as 37% and the pEC50 was 6.39. Moreover, the pEC50 at human TAAR1 (listed as example 13) was 6.39. Further, on human DAT, the “Ratio DAT Ki/hTAAR1 EC50” value was 3, the “DAT selectivity ratio versus hTAAR1 EC50” value came to 3 fold and the negative logarithm of the Ki (pKi) is 5.88.

In the case of `Cc1cc(C(=O)Nc2ccc([C@H]3CNCCO3)cc2)cc(Cl)n1` [Example 14, 2-Chloro-6-methyl-N-[4-[(2S)-morpholin-2-yl]phenyl]pyridine-4-carboxamide], at hERG potassium channel, the “Ratio hERG IC20/hTAAR1 EC50” value was determined as 48 and the negative-log IC50 (pIC50) is 4.14. In addition, the concentration for an effect of 20% (IC20) at hERG potassium channel (setting [3]) was 21.6 µM. At human TAAR1, the “hTAAR1 efficacy*” value amounted to 53% and the pEC50 was 6.35. The negative logarithm of the EC50 (pEC50) at human TAAR1 (listed as example 14) is 6.35. On human DAT, the “Ratio DAT Ki/hTAAR1 EC50” value is 16, the “DAT selectivity ratio versus hTAAR1 EC50” value is on record as 16 fold and the negative-log Ki (pKi) was 5.14.

As to `O=C(Nc1ccc([C@H]2CNCCO2)cc1)c1coc(-c2ccccc2)n1` [Example 15, N-[4-[(2S)-Morpholin-2-yl]phenyl]-2-phenyl-1,3-oxazole-4-carboxamide], at hERG potassium channel, the “Ratio hERG IC20/hTAAR1 EC50” value worked out at 4 and the negative logarithm of the IC50 (pIC50) is 5.02. The IC20 at hERG potassium channel (setting [1]) is 2.4 µM. Also, the selectivity ratio at hERG potassium channel (setting [2]) turned out to be 4. For the same compound, on human TAAR1, the “hTAAR1 efficacy*” value is listed as 35% and the pEC50 is 6.18. Also, the negative logarithm of the EC50 (pEC50) at human TAAR1 (listed as example 15) is 6.18. At human DAT, the “Ratio DAT Ki/hTAAR1 EC50” value is listed as more than 39 and the pKi was less than 4.58.

For the compound `O=C(Nc1ccc([C@H]2CNCCO2)cc1)c1csc(-c2ccccc2)n1` [Example 16, N-[4-[(2S)-Morpholin-2-yl]phenyl]-2-phenyl-1,3-thiazole-4-carboxamide], at hERG potassium channel, the “Ratio hERG IC20/hTAAR1 EC50” value is recorded as 5 and the negative-log IC50 (pIC50) was 5.05. In addition, the concentration for an effect of 20% (IC20) at hERG potassium channel (setting [1]) was 3.35 µM. The selectivity ratio on hERG potassium channel (setting [2]) is 5. Moreover, at human TAAR1, the “hTAAR1 efficacy*” value was 35% and the negative logarithm of the EC50 (pEC50) is 6.18. At human DAT, the “Ratio DAT Ki/hTAAR1 EC50” value came to 24 and the pKi was 4.79.

As for `Cc1cc(C(=O)Nc2ccc([C@H]3CNCCO3)cc2)ccn1` [Example 17, 2-Methyl-N-[4-[(2S)-morpholin-2-yl]phenyl]pyridine-4-carboxamide], on hERG potassium channel, the “Ratio hERG IC20/hTAAR1 EC50” value was determined as 193 and the negative-log IC50 (pIC50) was 3.29. Besides, the IC20 on hERG potassium channel (setting [3]) is 130 µM. At human TAAR1, the “hTAAR1 efficacy*” value came out at 45% and the negative logarithm of the EC50 (pEC50) is 6.17. Further, the pEC50 on human TAAR1 (listed as example 17) is 6.17. On human DAT, the “Ratio DAT Ki/hTAAR1 EC50” value is 15, the “DAT selectivity ratio versus hTAAR1 EC50” value is given as 15 fold and the pKi was 4.99.

Regarding `Cc1cc(C(=O)Nc2ccc([C@H]3CNCCO3)cc2)cc(C)n1` [Example 18, 2,6-Dimethyl-N-[4-[(2S)-morpholin-2-yl]phenyl]pyridine-4-carboxamide], at hERG potassium channel, the “Ratio hERG IC20/hTAAR1 EC50” value came to 177 and the pIC50 was 3.15. Further, the IC20 at hERG potassium channel (setting [3]) was 147 µM. Moreover, on human TAAR1, the “hTAAR1 efficacy*” value is 63% and the pEC50 was 6.08. Also, the pEC50 on human TAAR1 (listed as example 18) is 6.08. Also, on human DAT, the “Ratio DAT Ki/hTAAR1 EC50” value is more than 32 and the negative logarithm of the Ki (pKi) is less than 4.58.
